Experimental data reported in the supplement of paper PMC10307832.

Tests used:
Test in all cases: relative viability (nuclei count vs DMSO), 5 days (fraction); higher = more cells survive
Tivantinib + Phenformin = compound: O=C1NC(=O)[C@@H](c2cn3c4c(cccc24)CCC3)[C@@H]1c1c[nH]c2ccccc12 [Tivantinib] + N=C(N)NC(=N)NCCc1ccccc1 [Phenformin] (partner 250 µM)
In short: (§1)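 Lung cancer cell lines in 1536-well plates got either a single drug or a fixed anchor-drug dose together with five library-drug doses (not always all listed) in √10 steps, by pin tool, on the day after seeding. Nuclei were counted after 5 days, and relative viability is the treated-to-vehicle ratio of nuclei counts. Values are medians of duplicate plates.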

Tivantinib + Palbociclib = compound: O=C1NC(=O)[C@@H](c2cn3c4c(cccc24)CCC3)[C@@H]1c1c[nH]c2ccccc12 [Tivantinib] + CC(=O)c1c(C)c2cnc(Nc3ccc(N4CCNCC4)cn3)nc2n(C2CCCC2)c1=O [Palbociclib] (partner 0.5 µM)
In short: as §1

Tivantinib + Alpelisib = compound: O=C1NC(=O)[C@@H](c2cn3c4c(cccc24)CCC3)[C@@H]1c1c[nH]c2ccccc12 [Tivantinib] + Cc1nc(NC(=O)N2CCC[C@H]2C(N)=O)sc1-c1ccnc(C(C)(C)C(F)(F)F)c1 [Alpelisib] (partner 2 µM)
In short: as §1

Tivantinib + Tozasertib = compound: O=C1NC(=O)[C@@H](c2cn3c4c(cccc24)CCC3)[C@@H]1c1c[nH]c2ccccc12 [Tivantinib] + Cc1cc(Nc2cc(N3CCN(C)CC3)nc(Sc3ccc(NC(=O)C4CC4)cc3)n2)n[nH]1 [Tozasertib] (partner 0.1 µM)
In short: as §1

Cell Line | relative viability (Tivantinib + Phenformin; first compound 0.01 µM) | relative viability (Tivantinib + Phenformin; first compound 0.03162 µM) | relative viability (Tivantinib + Phenformin; first compound 0.1 µM) | relative viability (Tivantinib + Phenformin; first compound 0.3162 µM) | relative viability (Tivantinib + Palbociclib; first compound 0.01 µM) | relative viability (Tivantinib + Palbociclib; first compound 0.03162 µM) | relative viability (Tivantinib + Palbociclib; first compound 0.1 µM) | relative viability (Tivantinib + Palbociclib; first compound 0.3162 µM) | relative viability (Tivantinib + Alpelisib; first compound 0.01 µM) | relative viability (Tivantinib + Alpelisib; first compound 0.03162 µM) | relative viability (Tivantinib + Alpelisib; first compound 0.1 µM) | relative viability (Tivantinib + Tozasertib; first compound 0.01 µM) | relative viability (Tivantinib + Tozasertib; first compound 0.03162 µM) | relative viability (Tivantinib + Tozasertib; first compound 0.1 µM) | relative viability (Tivantinib + Tozasertib; first compound 0.3162 µM) | relative viability (Tivantinib + Alpelisib; first compound 0.3162 µM)
NCI-H661 | 0.288 | 0.281 | 0.404 | 0.271 | 0.453 | 0.395 | 0.397 | 0.315 | 0.404 | 0.86 | 0.72 | 0.365 | 0.363 | 0.354 | 0.356 | –
NCI-H727 | 0.636 | 0.409 | 0.393 | 0.584 | 0.619 | 0.528 | 0.714 | – | 0.537 | 0.526 | 0.505 | 0.641 | 0.558 | 0.463 | 0.515 | –
NCI-H838 | 0.705 | 0.554 | 0.464 | 0.514 | 0.245 | 0.212 | 0.188 | 0.207 | 0.915 | 1.06 | 0.973 | 0.26 | 0.273 | 0.262 | 0.322 | 0.953
NCI-H1355 | 0.474 | 0.475 | 0.439 | 0.436 | 0.395 | 0.374 | 0.385 | 0.384 | 0.852 | 0.839 | 0.877 | 0.561 | 0.488 | 0.541 | 0.489 | 0.751
NCI-H1395 | 0.468 | 0.513 | 0.45 | 0.437 | 0.708 | 0.625 | 0.632 | 0.527 | 1.18 | 1.23 | 1 | 0.76 | 0.747 | 0.718 | 0.689 | 0.878
NCI-H1437 | 0.3 | 0.278 | 0.275 | 0.351 | 0.311 | 0.28 | 0.335 | 0.289 | 0.969 | 0.934 | 0.898 | 0.426 | 0.386 | 0.391 | 0.422 | 0.971
NCI-H1651 | 0.348 | 0.287 | 0.318 | 0.376 | 0.518 | 0.461 | 0.495 | 0.424 | 1.04 | 0.856 | 1.01 | 0.617 | 0.678 | 0.672 | 0.71 | 0.915
NCI-H1666 | 0.566 | 0.576 | 0.531 | 0.552 | 0.691 | 0.596 | 0.66 | 0.681 | 0.902 | 0.904 | 0.948 | 0.624 | 0.612 | 0.606 | 0.526 | 0.608
NCI-H1734 | 0.401 | 0.346 | 0.386 | 0.451 | 0.384 | 0.319 | 0.336 | 0.366 | 0.677 | 0.597 | 0.64 | 0.273 | 0.278 | 0.252 | 0.247 | 0.681
NCI-H1755 | 0.591 | 0.591 | 0.589 | 0.666 | 0.437 | 0.44 | 0.432 | 0.459 | 0.918 | 0.936 | 0.886 | 0.525 | 0.602 | 0.507 | 0.608 | 0.902
NCI-H1793 | 0.347 | 0.388 | 0.371 | 0.213 | 0.334 | 0.237 | 0.325 | 0.241 | 0.678 | 0.858 | 0.703 | 0.427 | 0.329 | 0.353 | 0.222 | –
NCI-H1915 | 0.362 | 0.354 | 0.367 | 0.378 | 0.527 | 0.446 | 0.544 | 0.58 | 1.07 | 1.01 | 1.09 | 0.427 | 0.412 | 0.422 | 0.391 | 1.04
NCI-H1944 | 0.189 | 0.179 | 0.192 | 0.228 | 0.366 | 0.327 | 0.324 | 0.297 | 0.79 | 0.782 | 0.735 | 0.257 | 0.232 | 0.264 | 0.204 | 0.554
NCI-H1975 | 0.398 | 0.421 | 0.403 | 0.357 | 0.55 | 0.536 | 0.536 | 0.37 | 0.645 | 0.676 | 0.602 | 0.773 | 0.744 | 0.645 | 0.714 | 0.5
NCI-H1993 | 0.446 | 0.503 | 0.514 | 0.605 | 0.701 | 0.621 | 0.583 | 0.567 | 0.682 | 0.707 | 0.644 | 0.541 | 0.595 | 0.543 | 0.51 | 0.669
NCI-H2009 | 0.492 | 0.503 | 0.481 | 0.528 | 0.267 | 0.186 | 0.126 | 0.207 | 1.15 | 1.21 | 1.12 | 0.734 | 0.696 | 0.755 | 0.651 | 1.14

Cell Line | relative viability (Tivantinib + Phenformin; first compound 0.01 µM) | relative viability (Tivantinib + Phenformin; first compound 0.03162 µM) | relative viability (Tivantinib + Phenformin; first compound 0.1 µM) | relative viability (Tivantinib + Phenformin; first compound 0.3162 µM) | relative viability (Tivantinib + Palbociclib; first compound 0.01 µM) | relative viability (Tivantinib + Palbociclib; first compound 0.03162 µM) | relative viability (Tivantinib + Palbociclib; first compound 0.1 µM) | relative viability (Tivantinib + Palbociclib; first compound 0.3162 µM) | relative viability (Tivantinib + Alpelisib; first compound 0.01 µM) | relative viability (Tivantinib + Alpelisib; first compound 0.03162 µM) | relative viability (Tivantinib + Alpelisib; first compound 0.1 µM) | relative viability (Tivantinib + Tozasertib; first compound 0.01 µM) | relative viability (Tivantinib + Tozasertib; first compound 0.03162 µM) | relative viability (Tivantinib + Tozasertib; first compound 0.1 µM) | relative viability (Tivantinib + Tozasertib; first compound 0.3162 µM) | relative viability (Tivantinib + Alpelisib; first compound 0.3162 µM)
NCI-H2023 | 0.484 | 0.41 | 0.422 | 0.444 | 0.447 | 0.376 | 0.334 | 0.327 | 0.549 | 0.642 | 0.5 | 0.337 | 0.325 | 0.268 | 0.308 | 0.492
NCI-H2085 | 0.774 | 0.639 | 0.699 | 0.519 | 0.472 | 0.483 | 0.463 | 0.468 | 1.03 | 0.934 | 1.01 | 0.764 | 0.798 | 0.755 | 0.749 | 0.837
NCI-H2087 | 0.446 | 0.456 | 0.473 | 0.472 | 0.209 | 0.233 | 0.276 | 0.228 | 1 | 1.06 | 1.02 | 0.311 | 0.257 | 0.235 | 0.3 | 0.956
NCI-H2126 | 0.527 | 0.504 | 0.532 | 0.47 | 0.366 | 0.323 | 0.342 | 0.397 | 0.745 | 0.739 | 0.749 | 0.91 | 0.785 | 0.831 | 0.538 | 0.684
NCI-H2170 | 0.429 | 0.437 | 0.401 | – | 0.398 | 0.411 | 0.363 | – | 0.806 | 0.852 | 0.674 | 0.771 | 0.619 | 0.749 | – | –
NCI-H2228 | – | 0.296 | 0.283 | 0.223 | 0.895 | 0.794 | 0.652 | 0.602 | 0.842 | 0.644 | 0.618 | – | 0.356 | 0.221 | 0.214 | 0.695
NCI-H2347 | 0.514 | 0.375 | 0.389 | 0.377 | 0.399 | 0.472 | 0.422 | 0.381 | 1.16 | 0.959 | 1.06 | 0.71 | 0.6 | 0.53 | 0.624 | 1.01
NCI-H2405 | 0.437 | 0.38 | 0.367 | 0.473 | 0.565 | 0.584 | 0.486 | 0.536 | 1.12 | 0.751 | 0.777 | 0.759 | 0.782 | 0.756 | 0.707 | 0.483
NCI-H3122 | 0.369 | 0.394 | 0.359 | 0.361 | 0.208 | 0.216 | 0.164 | 0.186 | 0.731 | 0.849 | 0.803 | 0.409 | 0.36 | 0.508 | 0.146 | 0.807
PC-3 [JPC-3] | 0.459 | 0.494 | 0.506 | 0.355 | 0.482 | 0.6 | 0.508 | 0.491 | 0.993 | 1.06 | 1.05 | 0.877 | 0.902 | 0.945 | 0.705 | 0.775
PC-14 | 0.516 | 0.454 | 0.611 | 0.341 | 0.594 | 0.578 | 0.499 | 0.536 | 0.874 | 0.927 | 0.945 | 0.635 | 0.558 | 0.594 | 0.379 | 0.892
RERF-LC-KJ | 0.454 | 0.442 | 0.407 | 0.335 | 0.644 | 1.1 | 1.01 | 0.647 | 0.839 | 0.854 | 0.81 | 0.539 | 0.532 | 0.473 | 0.403 | 0.6
SK-LU-1 | 0.536 | 0.539 | 0.497 | 0.601 | 0.42 | 0.394 | 0.423 | 0.34 | 1.04 | 1.17 | 0.995 | 0.331 | 0.357 | 0.312 | 0.323 | 1.16
SK-MES-1 | 0.676 | 0.672 | 0.619 | 0.673 | 0.336 | 0.345 | 0.296 | 0.361 | 0.912 | 0.867 | 0.929 | 0.903 | 0.904 | 0.824 | 0.862 | 0.444
SW 1573 | 0.419 | 0.357 | 0.392 | 0.263 | 0.464 | 0.384 | 0.32 | 0.343 | 0.941 | 0.738 | 0.741 | 0.23 | 0.262 | 0.177 | 0.127 | 0.716
UMC-11 | 0.331 | 0.338 | 0.289 | 0.371 | 0.354 | 0.332 | 0.314 | 0.311 | 0.961 | 0.939 | 0.876 | 0.202 | – | 0.178 | 0.188 | 0.939
